Where a name gives a salt, the structure may show the parent alone.
target: HIF PHD2 (Homo sapiens, UniProt Q9GZT9); assay: PHD2 inhibition assay (TR-FRET, VCB-Eu detection of hydroxylated P564-HIF1α peptide); type: biochemical; conditions: 2 nM PHD2, 100 nM P564-HIF1α peptide, 0.25 μM 2-oxoglutarate
Outline: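 Human PHD2 (2 nM final) preincubated 1 h at room temperature with compound and 100 μM FeCl2 in pH 6 MES buffer, 5% DMSO final. Reaction with 100 nM biotinylated P564-HIF1α peptide, 2 mM ascorbate and 0.25 μM 2-oxoglutarate for 1 h, stopped with succinate. Hydroxylation read by TR-FRET (VCB-Eu/streptavidin-APC, 655/615 nm); IC50 from 4-parameter fit of percent of control.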

Chain of HIF PHD2 (Q9GZT9 whole entry): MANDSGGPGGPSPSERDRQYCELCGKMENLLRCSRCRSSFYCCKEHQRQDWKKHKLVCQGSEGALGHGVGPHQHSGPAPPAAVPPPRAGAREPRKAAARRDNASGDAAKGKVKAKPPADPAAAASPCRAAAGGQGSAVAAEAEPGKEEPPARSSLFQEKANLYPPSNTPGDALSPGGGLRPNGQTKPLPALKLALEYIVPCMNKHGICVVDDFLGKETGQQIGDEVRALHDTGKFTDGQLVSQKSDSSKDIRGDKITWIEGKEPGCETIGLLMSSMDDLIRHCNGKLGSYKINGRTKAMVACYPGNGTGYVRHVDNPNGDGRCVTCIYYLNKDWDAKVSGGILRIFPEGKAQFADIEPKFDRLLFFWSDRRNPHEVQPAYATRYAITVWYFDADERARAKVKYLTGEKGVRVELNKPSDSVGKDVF

Cn1c(=O)c(C(=O)NCC(=O)O)c(O)c2cccnc21 [Example 76, 2-(4-Hydroxy-1-methyl-2-oxo-1,2-dihydro-1,8-naphthyridine-3-carboxamido)acetic acid] and Cn1c(=O)c(C(=O)NCC(=O)O)c(O)c2cc(F)cnc21 [Example 77, 2-(6-Fluoro-4-hydroxy-1-methyl-2-oxo-1,2-dihydro-1,8-naphthyridine-3-carboxamido)acetic acid] fall in the same range of IC50: 50 to 100 nM for the first, 50 to 100 nM for the second.

First: Cn1c(=O)c(C(=O)NCC(=O)O)c(O)c2cc(C#CC(C)(C)C)cnc21 [Example 78, N-((6-(3,3-Dimethyl-1-butyn-1-yl)-4-hydroxy-1-methyl-2-oxo-1,2-dihydro-1,8-naphthyridin-3-yl)carbonyl)glycine]
Second: CC#Cc1cnc2c(c1)c(O)c(C(=O)NCC(=O)O)c(=O)n2C [Example 84, 2-(4-Hydroxy-1-methyl-2-oxo-6-(prop-1-ynyl)-1,2-dihydro-1,8-naphthyridine-3-carboxamido)acetic acid]
The IC50 of the first is lower: under 50 nM for the first, 100 to 500 nM for the second. The first is the more potent here.

First: CCc1cnc2c(c1)c(O)c(C(=O)NCC(=O)O)c(=O)n2C [Example 79, 2-(6-Ethyl-4-hydroxy-1-methyl-2-oxo-1,2-dihydro-1,8-naphthyridine-3-carboxamido)acetic acid]
Second: CCCc1cnc2c(c1)c(O)c(C(=O)NCC(=O)O)c(=O)n2C [Example 83, 2-(4-Hydroxy-1-methyl-2-oxo-6-propyl-1,2-dihydro-1,8-naphthyridine-3-carboxamido)acetic acid]
The IC50 of the first is lower: under 50 nM for the first, 50 to 100 nM for the second.

First: C#Cc1cnc2c(c1)c(O)c(C(=O)NCC(=O)O)c(=O)n2C [Example 80, 2-(6-Ethynyl-4-hydroxy-1-methyl-2-oxo-1,2-dihydro-1,8-naphthyridine-3-carboxamido)acetic acid]
Second: Cn1c(=O)c(C(=O)NCC(=O)O)c(O)c2cc(C#N)cnc21 [Example 85, N-((6-Cyano-4-hydroxy-1-methyl-2-oxo-1,2-dihydro-1,8-naphthyridin-3-yl)carbonyl)glycine]
The IC50 of the first is higher: 100 to 500 nM for the first, under 50 nM for the second.

Cn1c(=O)c(C(=O)NCC(=O)O)c(O)c2cc(CCC3CC3)cnc21 [Example 81, 2-(6-(2-Cyclopropylethyl)-4-hydroxy-1-methyl-2-oxo-1,2-dihydro-1,8-naphthyridine-3-carboxamido)acetic acid] and Cn1c(=O)c(C(=O)NCC(=O)O)c(O)c2cc(C#CC3CC3)cnc21 [Example 82, 2-(6-(2-Cyclopropylethynyl)-4-hydroxy-1-methyl-2-oxo-1,2-dihydro-1,8-naphthyridine-3-carboxamido)acetic acid] cannot be ordered by IC50: under 50 nM for the first, under 50 nM for the second.

Compared with Cn1c(=O)c(C(=O)NCC(=O)O)c(O)c2ccc(C(F)(F)F)nc21 [Example 86, 2-(4-Hydroxy-1-methyl-2-oxo-7-(trifluoromethyl)-1,2-dihydro-1,8-naphthyridine-3-carboxamido)acetic acid], C[C@H](NC(=O)c1c(O)c2ccc(C(F)(F)F)nc2n(C)c1=O)C(=O)O [Example 89, (S)-2-(4-Hydroxy-1-methyl-2-oxo-7-(trifluoromethyl)-1,2-dihydro-1,8-naphthyridine-3-carboxamido)propanoic acid] is higher in IC50: under 50 nM for the first, 50 to 100 nM for the second. The first is the more potent here.

First: O=C(O)CNC(=O)c1c(O)c2ccc(C(F)(F)F)nc2[nH]c1=O [Example 87, 2-(4-Hydroxy-2-oxo-7-(trifluoromethyl)-1,2-dihydro-1,8-naphthyridine-3-carboxamido)acetic acid]
Second: C[C@H](NC(=O)c1c(O)c2ccc(C(F)(F)F)nc2[nH]c1=O)C(=O)O [Example 88, (S)-2-(4-Hydroxy-2-oxo-7-(trifluoromethyl)-1,2-dihydro-1,8-naphthyridine-3-carboxamido)propanoic acid]
The IC50 of the first is lower: under 50 nM for the first, 100 to 500 nM for the second.

Cn1c(=O)c(C(=O)NCC(=O)O)c(O)c2cc(-c3ccccc3)c(C(F)(F)F)nc21 [Example 90, 2-(4-Hydroxy-1-methyl-2-oxo-6-phenyl-7-(trifluoromethyl)-1,2-dihydro-1,8-naphthyridine-3-carboxamido)acetic acid] and Cn1c(=O)c(C(=O)NCC(=O)O)c(O)c2cc(-c3cccnc3)c(C(F)(F)F)nc21 [Example 91, 2-(4-Hydroxy-1-methyl-2-oxo-6-(pyridin-3-yl)-7-(trifluoromethyl)-1,2-dihydro-1,8-naphthyridine-3-carboxamido)acetic acid] cannot be ordered by IC50: under 50 nM for the first, under 50 nM for the second.

Cc1ncccc1-c1cc2c(O)c(C(=O)NCC(=O)O)c(=O)n(C)c2nc1C(F)(F)F [Example 92, 2-(4-Hydroxy-1-methyl-6-(2-methylpyridin-3-yl)-2-oxo-7-(trifluoromethyl)-1,2-dihydro-1,8-naphthyridine-3-carboxamido)acetic acid] and Cn1c(=O)c(C(=O)NCC(=O)O)c(O)c2cc(Br)c(C(F)(F)F)nc21 [Example 94, 2-(6-Bromo-4-hydroxy-1-methyl-2-oxo-7-(trifluoromethyl)-1,2-dihydro-1,8-naphthyridine-3-carboxamido)acetic acid] cannot be ordered by IC50: under 50 nM for the first, under 50 nM for the second.

Compared with Cn1c(=O)c(C(=O)NCC(=O)O)c(O)c2cc(C3CC3)c(C(F)(F)F)nc21 [Example 93, 2-(6-cyclopropyl-4-hydroxy-1-methyl-2-oxo-7-(trifluoromethyl)-1,2-dihydro-1,8-naphthyridine-3-carboxamido)acetic acid], Cn1c(=O)c(C(=O)NCC(=O)O)c(O)c2cc(C3CCCC3)c(C(F)(F)F)nc21 [Example 98, 2-(6-Cyclopentyl-4-hydroxy-1-methyl-2-oxo-7-(trifluoromethyl)-1,2-dihydro-1,8-naphthyridine-3-carboxamido)acetic acid] is higher in IC50: 50 to 100 nM for the first, 100 to 500 nM for the second. The first is the more potent here.

First: Cn1c(=O)c(C(=O)NCC(=O)O)c(O)c2cc(C3CCCCC3)c(C(F)(F)F)nc21 [Example 95, 2-(6-Cyclohexyl-4-hydroxy-1-methyl-2-oxo-7-(trifluoromethyl)-1,2-dihydro-1,8-naphthyridine-3-carboxamido)acetic acid]
Second: Cn1c(=O)c(C(=O)NCC(=O)O)c(O)c2cc(C#CC3CC3)c(C(F)(F)F)nc21 [Example 97, 2-(6-(2-Cyclopropylethynyl)-4-hydroxy-1-methyl-2-oxo-7-(trifluoromethyl)-1,2-dihydro-1,8-naphthyridine-3-carboxamido)acetic acid]
The IC50 of the first is higher: 100 to 500 nM for the first, under 50 nM for the second. The second is the more potent here.

First: Cn1c(=O)c(C(=O)NCC(=O)O)c(O)c2cc(C3=CCCCC3)c(C(F)(F)F)nc21 [Example 96, 2-(6-Cyclohexenyl-4-hydroxy-1-methyl-2-oxo-7-(trifluoromethyl)-1,2-dihydro-1,8-naphthyridine-3-carboxamido)acetic acid]
Second: Cn1c(=O)c(C(=O)NCC(=O)O)c(O)c2cc(C3=CCNCC3)ncc21 [Example 114, 2-(4-Hydroxy-1-methyl-2-oxo-6-(1,2,3,6-tetrahydropyridin-4-yl)-1,2-dihydro-1,7-naphthyridine-3-carboxamido)acetic acid, Trifluoroacetic acid salt]
The IC50 of the first is lower: under 50 nM for the first, 50 to 100 nM for the second.

Cn1c(=O)c(C(=O)NCC(=O)O)c(O)c2cc(-c3ccccc3)ncc21 [Example 105, N-((4-Hydroxy-1-methyl-2-oxo-6-phenyl-1,2-dihydro-1,7-naphthyridin-3-yl)carbonyl)glycine] and Cc1ccccc1-c1cc2c(O)c(C(=O)NCC(=O)O)c(=O)n(C)c2cn1 [Example 106, N-((4-Hydroxy-1-methyl-6-(2-methylphenyl)-2-oxo-1,2-dihydro-1,7-naphthyridin-3-yl)carbonyl)glycine] cannot be ordered by IC50: under 50 nM for the first, under 50 nM for the second.

First: Cn1c(=O)c(C(=O)NCC(=O)O)c(O)c2cc(-c3cccnc3)ncc21 [Example 107, N-((4-Hydroxy-1-methyl-2-oxo-6-(3-pyridinyl)-1,2-dihydro-1,7-naphthyridin-3-yl)carbonyl)glycine]
Second: Cn1c(=O)c(C(=O)NCC(=O)O)c(O)c2cc(-c3cccs3)ncc21 [Example 109, N-((4-Hydroxy-1-methyl-2-oxo-6-(2-thienyl)-1,2-dihydro-1,7-naphthyridin-3-yl)carbonyl)glycine]
The IC50 of the first is higher: 50 to 100 nM for the first, under 50 nM for the second. The second is the more potent here.

Cn1c(=O)c(C(=O)NCC(=O)O)c(O)c2cc(-c3ccc4c(c3)CCO4)ncc21 [Example 108, N-((6-(2,3-Dihydro-1-benzofuran-5-yl)-4-hydroxy-1-methyl-2-oxo-1,2-dihydro-1,7-naphthyridin-3-yl)carbonyl)glycine] and Cn1c(=O)c(C(=O)NCC(=O)O)c(O)c2cc(-c3ccc(OC(F)(F)F)cc3)ncc21 [Example 110, 2-(4-Hydroxy-1-methyl-2-oxo-6-(4-(trifluoromethoxy)phenyl)-1,2-dihydro-1,7-naphthyridine-3-carboxamido)acetic acid, Trifluoroacetic acid salt.] cannot be ordered by IC50: under 50 nM for the first, under 50 nM for the second.

Cn1c(=O)c(C(=O)NCC(=O)O)c(O)c2cc(Cl)ncc21 [Example 111, 2-(6-Chloro-4-hydroxy-1-methyl-2-oxo-1,2-dihydro-1,7-naphthyridine-3-carboxamido)acetic acid] and CC(C)c1cc2c(O)c(C(=O)NCC(=O)O)c(=O)n(C)c2cn1 [Example 113, N-((4-Hydroxy-1-methyl-6-(1-methylethyl)-2-oxo-1,2-dihydro-1,7-naphthyridin-3-yl)carbonyl)glycine] cannot be ordered by IC50: under 50 nM for the first, under 50 nM for the second.

Compared with Cn1c(=O)c(C(=O)NCC(=O)O)c(O)c2ccncc21 [Example 112, N-((4-Hydroxy-1-methyl-2-oxo-1,2-dihydro-1,7-naphthyridin-3-yl)carbonyl)glycine], CN1CC=C(c2cc3c(O)c(C(=O)NCC(=O)O)c(=O)n(C)c3cn2)CC1 [Example 116, 2-(4-Hydroxy-1-methyl-6-(1-methyl-1,2,3,6-tetrahydropyridin-4-yl)-2-oxo-1,2-dihydro-1,7-naphthyridine-3-carboxamido)acetic acid, Trifluoroacetic acid salt] is lower in IC50: 50 to 100 nM for the first, under 50 nM for the second.

With Cn1c(=O)c(C(=O)NCC(=O)O)c(O)c2cc(C3CCNCC3)ncc21 [Example 115, 2-(4-Hydroxy-1-methyl-2-oxo-6-(piperidin-4-yl)-1,2-dihydro-1,7-naphthyridine-3-carboxamido)acetic acid, Trifluoroacetic acid salt] the IC50 was 50 to 100 nM.
